# Results reported in US9073961B2, “Substitution derivatives of N6 -benzyladenosine-5′-monophosphate, methods of preparation thereof, use thereof as medicaments, and therapeutic preparations containing these compounds” (UNIVERZITA PALACKEHO V OLOMOUCI, priority 2010, dated 2015).
# Key:
# [1] = tested on: Normal human fibroblasts BJ; experiment: Calcein AM cytotoxicity assay, BJ; format: cell-based; details: 72 hours incubation
# How it was run: (§1)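 Cells pre-incubated 24 h at 37° C., 5% CO2, then exposed 72 h to compound at six 3-fold dilutions (top 166.7 μM), in triplicate. Calcein AM added to 1 μg/ml final; fluorescence read after 1 h. GI50 is the concentration giving 50% reduction of esterase activity, taken from dose-response curves.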
# MCF-7 (breast carcinoma) = experiment: Calcein AM cytotoxicity assay, MCF7; format: cell-based; details: 72 hours incubation
# How it was run: as §1
# [2] = tested on: HL-60 (promyelocytic leukemia); experiment: Calcein AM cytotoxicity assay, HL60; format: cell-based, human; details: 72 hours incubation
# How it was run: as §1
# [3] = tested on: K-562 (human erythroleukemia); experiment: Calcein AM cytotoxicity assay, K-562; format: cell-based; details: 72 hours incubation
# How it was run: as §1
# [4] = tested on: CEM (T-lymphoblastoid leukemia); experiment: Calcein AM cytotoxicity assay, CEM; format: cell-based
# How it was run: as §1
# Leukemia cell line CEM = experiment: Flow cytometry analysis of apoptosis (DNA fragmentation, sub-G1) in CEM; format: cell-based
# Protocol: One of the hallmarks of apoptosis is fragmentation of DNA. It can be measured by flowcytometry of the cells stained with propidium iodide. Because the fragmentation results in a loss of a fraction of the nuclear DNA, apoptotic cells have a lower DNA content than cells in G1 phase of cell cycle and can be detected as a subG1 peak in the histogram.
# Leukemia cell line CEM was cultured in cell culture medium (DMEM containing 5 g/l glucose, 2 mM glutamine, 100 U/ml penicillin, 100 μg/ml streptomycine, 10% fetal calf serum and sodium bicarbonate). 24 hours before treatment, cell suspensions were centrifuged, diluted with fresh medium to concentration of 100000 cells per ml with fresh medium and pipetted in 10 ml aliquotes Petri dishes. After an incubation for a given time period, the cells were collected by centrifugation (4° C., 600 g), washed with PBS (4° C.) and fixed with 70% ethanol at −20° C. overnight. Low molecular weight DNA fragmentse were extracted with citrate buffer (11.36 g trisodium citrate dihydrate/l). The nuclei were stained with the solution of propidium iodide in PBS (10 μg/ml) containing RNase A (60 IU per sample). After 1 hour incubation the samples were analyzed by flowcytometry (excitation 488 nm, emission above 620 nm).
# [5] = tested on: G-361 (human malignant melanoma); experiment: Calcein AM cytotoxicity assay, G-361; format: cell-based; details: 72 hours incubation
# How it was run: as §1
# caspase-3 = experiment: Activity of caspase-3 in CEM cells (Apo-ONE kit); format: cell-based; details: 10 μM, 12 and 24 hours
# Protocol: In the course of apoptosis, caspase cascade is activated. Caspase-3 is an effector caspase that plays a role in the induction of some changes typical for apoptosis (chromatin condensation, DNA fragmentation).
# Leukemia cell line CEM was cultured in cell culture medium (DMEM containing 5 g/l glucose, 2 mM glutamine, 100 U/ml peniciline, 100 μg/ml streptomycine, 10% fetal calf serum and sodium bicarbonate). 24 hours before treatment, cell suspensions were centrifuged, diluted to concentration of 500000 cells per ml with fresh medium and pipetted in 50 µL aliquotes into 96-well plate. After 12 and 24 hours of incubation with the test compound, the activity of caspase-3 was measured using commercial kit (Apo-ONE, Promega) that is based on quantification of hydrolysis of fluorogenic substrate Z-DEVD-R110 (excitation 480 nm/emission 520 nm). Reaction specifity was confirmed in a control experiment, when both test compound and caspase-3 inhibitor Ac-DEVD-CHO were added. All experiments were done in triplicate.
compound,measurement,setting,value
"O=P(O)(O)OC[C@H]1O[C@@H](n2cnc3c(NCc4ccccc4O)ncnc32)[C@H](O)[C@@H]1O [Compound 21, 6-(2-hydroxybenzylamino)purine riboside-5′-monophosphate]",GI50,[1],43.2 µM
same,GI50,MCF-7 (breast carcinoma),10.5 µM
same,GI50,[2],0.48 µM
same,GI50,[3],4 µM
same,GI50,"[4]; 72 hours incubation, Calcein AM",1.3 µM
same,IC50,[4]; FIG. 2 legend,1.3 µM
same,time after which DNA fragmentation effect was visible,Leukemia cell line CEM,≤ 12 h
same,induction of DNA fragmentation (apoptotic sub-G1 fraction),"Leukemia cell line CEM; IC50, triple IC50 and fivefold IC50",induction of DNA fragmentation is dependent on the concentration of compound 21 and the time of the treatment
same,GI50,[5],13.5 µM
same,activation of caspase-3,caspase-3,activates caspase-3
